Data published in ChEMBL document CHEMBL1122462, “Potential antiatherosclerotic agents. 4. [(Functionalized-alkyl)amino]benzoic acid analogues of cetaben” (1983).

Key:
Rattus norvegicus [1] = test: In vivo sterol lowering activity at dose of 0.10 % of the diet; assay type: functional
Rattus norvegicus [2] = test: In vivo Triglyceride lowering activity at dose as 0.01 % of the diet; assay type: functional
Rattus norvegicus [3] = test: In vivo sterol lowering activity, dosed as 0.03 % of the diet; assay type: functional
[4] = target: T1, Sterol O-acyltransferase 1 (Rattus norvegicus) (UniProt O70536); test: In vitro inhibitory activity against acyl coenzyme A:cholesterol acyltransferase; set-up: concentration or dose not given beside the values; details: concentration not given here
T1 sequence (whole entry): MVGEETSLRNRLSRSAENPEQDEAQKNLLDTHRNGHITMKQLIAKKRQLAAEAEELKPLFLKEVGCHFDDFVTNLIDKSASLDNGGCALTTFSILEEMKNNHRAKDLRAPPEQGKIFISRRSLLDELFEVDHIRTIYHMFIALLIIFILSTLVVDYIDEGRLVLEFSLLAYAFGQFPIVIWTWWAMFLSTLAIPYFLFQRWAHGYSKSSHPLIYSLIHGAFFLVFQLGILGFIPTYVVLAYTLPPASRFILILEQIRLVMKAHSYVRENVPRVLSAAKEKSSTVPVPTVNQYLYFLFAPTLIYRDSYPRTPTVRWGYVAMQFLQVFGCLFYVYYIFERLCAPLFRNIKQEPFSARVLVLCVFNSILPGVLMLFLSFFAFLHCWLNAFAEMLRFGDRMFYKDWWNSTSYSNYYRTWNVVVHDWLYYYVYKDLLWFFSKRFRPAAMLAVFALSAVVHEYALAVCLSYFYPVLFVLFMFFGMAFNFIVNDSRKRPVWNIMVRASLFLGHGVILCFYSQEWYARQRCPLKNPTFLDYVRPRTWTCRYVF

Rattus norvegicus [5] = test: In vivo Sterol lowering activity at dose as 0.01% of the diet; assay type: functional
Rattus norvegicus [6] = test: In vivo Triglyceride lowering activity at dose as 0.03 % of the diet; assay type: functional
Rattus norvegicus [7] = test: In vivo Triglyceride lowering activity at a dose of 0.10 % of the diet; assay type: functional

With `CCOC(=O)c1ccc(NCCCCCCCCCCCCCCCCSC(C)=O)cc1` the “serum sterol level, % of control” value (Rattus norvegicus [1]) was 93%, the “serum triglyceride level (% of control)” value (Rattus norvegicus [2]) was 91% and the “serum sterol level, percent of control” value (Rattus norvegicus [3]) was 96%. The inhibition [4] was 0%, the “serum sterol level, percent of control” value (Rattus norvegicus [5]) was 98% and the triglyceride lowering activity (Rattus norvegicus [6]) was 75%. For the same molecule, the “serum triglyceride level (% of control)” value (Rattus norvegicus [7]) was under 57%.

With `O=C(O)c1ccc(NCCCCCCCCCCCBr)cc1` the “serum sterol level, % of control” value (Rattus norvegicus [1]) was 100%, the “serum triglyceride level (% of control)” value (Rattus norvegicus [2]) was 78% and the “serum sterol level, percent of control” value (Rattus norvegicus [3]) was under 86%. The inhibition [4] was 8%, the “serum sterol level, percent of control” value (Rattus norvegicus [5]) was 99% and the triglyceride lowering activity (Rattus norvegicus [6]) was under 65%. The “serum triglyceride level (% of control)” value (Rattus norvegicus [7]) was under 55%.

With `CC(C)(C)CCCCCCCCCCCCNc1ccc(C(=O)O)cc1` the “serum sterol level, % of control” value (Rattus norvegicus [1]) was under 75%, the “serum triglyceride level (% of control)” value (Rattus norvegicus [2]) was under 75% and the “serum sterol level, percent of control” value (Rattus norvegicus [3]) was under 77%. The inhibition [4] was under 59%, the “serum sterol level, percent of control” value (Rattus norvegicus [5]) was 94% and the triglyceride lowering activity (Rattus norvegicus [6]) was under 53%. For the same molecule, the “serum triglyceride level (% of control)” value (Rattus norvegicus [7]) was under 26%.

`CCCCCCCCCCC(C)Nc1ccc(C(=O)O)cc1` (centres undefined) was tested, and the “serum sterol level, % of control” value (Rattus norvegicus [1]) was 92%, the “serum triglyceride level (% of control)” value (Rattus norvegicus [2]) was under 42% and the “serum sterol level, percent of control” value (Rattus norvegicus [3]) was under 90%. For the same molecule, the inhibition [4] was under 51%, the “serum sterol level, percent of control” value (Rattus norvegicus [5]) was 94% and the triglyceride lowering activity (Rattus norvegicus [6]) was under 49%. For the same molecule, the “serum triglyceride level (% of control)” value (Rattus norvegicus [7]) was under 58%.

For `O=C(O)c1ccc(NCCCCCCCCCCCS)cc1`, the “serum sterol level, % of control” value (Rattus norvegicus [1]) was under 84%, the “serum triglyceride level (% of control)” value (Rattus norvegicus [2]) was under 65% and the “serum sterol level, percent of control” value (Rattus norvegicus [3]) was 89%. For the same molecule, the inhibition [4] was under 26%, the “serum sterol level, percent of control” value (Rattus norvegicus [5]) was 92% and the triglyceride lowering activity (Rattus norvegicus [6]) was under 61%. The “serum triglyceride level (% of control)” value (Rattus norvegicus [7]) was under 50%.

With `CCOC(=O)c1ccc(NCCCCCCCCCCCCC(C)(C)C)cc1` the “serum sterol level, % of control” value (Rattus norvegicus [1]) was under 83%, the “serum triglyceride level (% of control)” value (Rattus norvegicus [2]) was 99% and the “serum sterol level, percent of control” value (Rattus norvegicus [3]) was under 84%. For the same molecule, the inhibition [4] was 7%, the “serum sterol level, percent of control” value (Rattus norvegicus [5]) was under 89% and the triglyceride lowering activity (Rattus norvegicus [6]) was 83%. For the same molecule, the “serum triglyceride level (% of control)” value (Rattus norvegicus [7]) was 81%.

`CC(C)CCCCCCCCCCCCCNc1ccc(C(=O)O)cc1` was tested, and the “serum sterol level, % of control” value (Rattus norvegicus [1]) was under 64%, the “serum triglyceride level (% of control)” value (Rattus norvegicus [2]) was 77% and the “serum sterol level, percent of control” value (Rattus norvegicus [3]) was under 76%. The inhibition [4] was under 63%, the “serum sterol level, percent of control” value (Rattus norvegicus [5]) was under 89% and the triglyceride lowering activity (Rattus norvegicus [6]) was under 68%. The “serum triglyceride level (% of control)” value (Rattus norvegicus [7]) was under 29%.

`CCOC(=O)c1ccc(NCCCCCCCCCCCBr)cc1` was tested, and the “serum sterol level, % of control” value (Rattus norvegicus [1]) was 101%, the “serum triglyceride level (% of control)” value (Rattus norvegicus [2]) was 83% and the “serum sterol level, percent of control” value (Rattus norvegicus [3]) was 94%. The inhibition [4] was under 61%, the “serum sterol level, percent of control” value (Rattus norvegicus [5]) was 108% and the triglyceride lowering activity (Rattus norvegicus [6]) was 83%. The “serum triglyceride level (% of control)” value (Rattus norvegicus [7]) was 74%.

For `CCCCCCCCCCC(C#N)CCCCCNc1ccc(C(=O)OCC)cc1` (centres undefined), the “serum sterol level, % of control” value (Rattus norvegicus [1]) was 87%, the “serum triglyceride level (% of control)” value (Rattus norvegicus [2]) was under 66% and the “serum sterol level, percent of control” value (Rattus norvegicus [3]) was 97%. For the same molecule, the inhibition [4] was under 69%, the “serum sterol level, percent of control” value (Rattus norvegicus [5]) was 100% and the triglyceride lowering activity (Rattus norvegicus [6]) was under 69%. For the same molecule, the “serum triglyceride level (% of control)” value (Rattus norvegicus [7]) was under 51%.

`CCOC(=O)c1ccc(NCCCCCCCCCCCCCCC(C)(C)C)cc1` was tested, and the “serum sterol level, % of control” value (Rattus norvegicus [1]) was under 68%, the “serum triglyceride level (% of control)” value (Rattus norvegicus [2]) was 79% and the “serum sterol level, percent of control” value (Rattus norvegicus [3]) was under 78%. For the same molecule, the inhibition [4] was 5%, the “serum sterol level, percent of control” value (Rattus norvegicus [5]) was under 69% and the triglyceride lowering activity (Rattus norvegicus [6]) was under 71%. The “serum triglyceride level (% of control)” value (Rattus norvegicus [7]) was under 44%.

`CCCCCCCCCCCCCCC(C)Nc1ccc(C(=O)O)cc1` (centres undefined) was tested, and the “serum sterol level, % of control” value (Rattus norvegicus [1]) was under 79%, the “serum triglyceride level (% of control)” value (Rattus norvegicus [2]) was 79% and the “serum sterol level, percent of control” value (Rattus norvegicus [3]) was 95%. The inhibition [4] was under 51%, the “serum sterol level, percent of control” value (Rattus norvegicus [5]) was 114% and the triglyceride lowering activity (Rattus norvegicus [6]) was 68%. The “serum triglyceride level (% of control)” value (Rattus norvegicus [7]) was under 49%.

With `CCOC(=O)c1ccc(NCCCCCCCCCCCCCC[Si](C)(C)C)cc1` the “serum sterol level, % of control” value (Rattus norvegicus [1]) was under 53%, the “serum triglyceride level (% of control)” value (Rattus norvegicus [2]) was under 77% and the “serum sterol level, percent of control” value (Rattus norvegicus [3]) was under 66%. For the same molecule, the inhibition [4] was under 50%, the “serum sterol level, percent of control” value (Rattus norvegicus [5]) was 84% and the triglyceride lowering activity (Rattus norvegicus [6]) was under 66%. For the same molecule, the “serum triglyceride level (% of control)” value (Rattus norvegicus [7]) was under 62%.

For `CCCCCCCCCCCCCCCC(=O)Nc1ccc(C(=O)O)cc1`, the “serum sterol level, % of control” value (Rattus norvegicus [1]) was 112%, the “serum triglyceride level (% of control)” value (Rattus norvegicus [2]) was 103% and the “serum sterol level, percent of control” value (Rattus norvegicus [3]) was 118%. The inhibition [4] was 16%, the “serum sterol level, percent of control” value (Rattus norvegicus [5]) was 111% and the triglyceride lowering activity (Rattus norvegicus [6]) was 94%. The “serum triglyceride level (% of control)” value (Rattus norvegicus [7]) was 105%.

With `O=C(O)c1ccc(NCCCCCCCCCCC(F)(F)F)cc1` the “serum sterol level, % of control” value (Rattus norvegicus [1]) was under 69%, the “serum triglyceride level (% of control)” value (Rattus norvegicus [2]) was under 57% and the “serum sterol level, percent of control” value (Rattus norvegicus [3]) was under 80%. The inhibition [4] was 22%, the “serum sterol level, percent of control” value (Rattus norvegicus [5]) was 92% and the triglyceride lowering activity (Rattus norvegicus [6]) was under 57%. For the same molecule, the “serum triglyceride level (% of control)” value (Rattus norvegicus [7]) was under 56%.

With `O=C(O)c1ccc(NCCCCCCCCCCCO)cc1` the “serum sterol level, % of control” value (Rattus norvegicus [1]) was 99%, the “serum triglyceride level (% of control)” value (Rattus norvegicus [2]) was 111% and the “serum sterol level, percent of control” value (Rattus norvegicus [3]) was 95%. For the same molecule, the inhibition [4] was under 30%, the “serum sterol level, percent of control” value (Rattus norvegicus [5]) was 93% and the triglyceride lowering activity (Rattus norvegicus [6]) was 101%. The “serum triglyceride level (% of control)” value (Rattus norvegicus [7]) was 78%.

`CCCCCCCCCCC(Cl)CCCCCNc1ccc(C(=O)OCC)cc1` (centres undefined) was tested, and the “serum sterol level, % of control” value (Rattus norvegicus [1]) was 94%, the “serum triglyceride level (% of control)” value (Rattus norvegicus [2]) was 82% and the “serum sterol level, percent of control” value (Rattus norvegicus [3]) was 91%. For the same molecule, the inhibition [4] was 13%, the “serum sterol level, percent of control” value (Rattus norvegicus [5]) was 98% and the triglyceride lowering activity (Rattus norvegicus [6]) was 84%. The “serum triglyceride level (% of control)” value (Rattus norvegicus [7]) was under 53%.

With `O=C(O)c1ccc(NCCCCCCCCCCCC2CCCCC2)cc1` the “serum sterol level, % of control” value (Rattus norvegicus [1]) was 83%, the “serum triglyceride level (% of control)” value (Rattus norvegicus [2]) was 73% and the “serum sterol level, percent of control” value (Rattus norvegicus [3]) was 91%. For the same molecule, the inhibition [4] was under 56%, the “serum sterol level, percent of control” value (Rattus norvegicus [5]) was 95% and the triglyceride lowering activity (Rattus norvegicus [6]) was under 51%. For the same molecule, the “serum triglyceride level (% of control)” value (Rattus norvegicus [7]) was under 48%.

In the case of `CCCCCC(=O)CCCCCCCCCCNc1ccc(C(=O)OCC)cc1`, the “serum sterol level, % of control” value (Rattus norvegicus [1]) is reported as 89%, the “serum triglyceride level (% of control)” value (Rattus norvegicus [2]) is reported as under 64% and the “serum sterol level, percent of control” value (Rattus norvegicus [3]) is reported as 100%. The inhibition [4] was under 44%, the “serum sterol level, percent of control” value (Rattus norvegicus [5]) was 99% and the triglyceride lowering activity (Rattus norvegicus [6]) was under 58%. The “serum triglyceride level (% of control)” value (Rattus norvegicus [7]) was under 42%.

In the case of `CCCCCCCCCCC(N)CCCCCNc1ccc(C(=O)[O-])cc1.[Na+]` (centres undefined), the “serum sterol level, % of control” value (Rattus norvegicus [1]) is reported as 98%, the “serum triglyceride level (% of control)” value (Rattus norvegicus [2]) is reported as 68% and the “serum sterol level, percent of control” value (Rattus norvegicus [3]) is reported as 117%. For the same molecule, the inhibition [4] was 7%, the “serum sterol level, percent of control” value (Rattus norvegicus [5]) was 100% and the triglyceride lowering activity (Rattus norvegicus [6]) was 107%. The “serum triglyceride level (% of control)” value (Rattus norvegicus [7]) was 120%.

For `CCOC(=O)c1ccc(NCCCCCCCCCCC(F)(F)F)cc1`, the “serum sterol level, % of control” value (Rattus norvegicus [1]) was under 87%, the “serum triglyceride level (% of control)” value (Rattus norvegicus [2]) was under 74% and the “serum sterol level, percent of control” value (Rattus norvegicus [3]) was 88%. For the same molecule, the inhibition [4] was under 24%, the “serum sterol level, percent of control” value (Rattus norvegicus [5]) was under 86% and the triglyceride lowering activity (Rattus norvegicus [6]) was under 61%. For the same molecule, the “serum triglyceride level (% of control)” value (Rattus norvegicus [7]) was under 46%.

With `Br.CCOC(=O)c1ccc(NCCCCCCCCCCCSC(=N)N)cc1` the “serum sterol level, % of control” value (Rattus norvegicus [1]) was 98%, the “serum triglyceride level (% of control)” value (Rattus norvegicus [2]) was 85% and the “serum sterol level, percent of control” value (Rattus norvegicus [3]) was 107%. The inhibition [4] was under 73%, the “serum sterol level, percent of control” value (Rattus norvegicus [5]) was 100% and the triglyceride lowering activity (Rattus norvegicus [6]) was under 69%. The “serum triglyceride level (% of control)” value (Rattus norvegicus [7]) was under 59%.

With `O=C(CCCCCCCCCCOc1ccc(C(=O)O)cc1)Nc1ccc(C(=O)O)cc1` the “serum sterol level, % of control” value (Rattus norvegicus [1]) was 100%, the “serum triglyceride level (% of control)” value (Rattus norvegicus [2]) was 116% and the “serum sterol level, percent of control” value (Rattus norvegicus [3]) was 93%. For the same molecule, the inhibition [4] was under 33%, the “serum sterol level, percent of control” value (Rattus norvegicus [5]) was 100% and the triglyceride lowering activity (Rattus norvegicus [6]) was 106%. The “serum triglyceride level (% of control)” value (Rattus norvegicus [7]) was 93%.
